Test results published in patent US20170371042A1, “CONTRAST AGENT FOR OPTICAL IMAGING, USE THEREOF AND APPARATUS USING THE SAME” (KYUNGPOOK NATIONAL UNIVERSITY INDUSTRY- ACADEMIC …, priority 2009, published 2017).

What was measured:
[1] = cited from earlier work; for Decay mode EC (%): electron capture; for Ece mean: conversion electron
[2] = Luminescence imaging using [^18F]FDG; assay type: in vivo; details: BALB/c mouse bearing luciferase-transfected 4T1 tumour cells, 1 hour after injecting 409 μCi via tail vein, no luciferin
Method: A BALB/c mouse with a luciferase-transfected 4T1 tumor was injected with […] of [^18F]FDG via the tail vein. One hour after the injection, the mouse was scanned for 3 minutes in the prone position using IVIS 200. […] The brain (red arrow) and the brown fat (white arrow) are clearly visualized.

[3] = normal mouse (C3H/HeN), 500 μCi intraperitoneally, 40 minutes post-injection
Method: 500 mCi of ^124I was injected intraperitoneally into a normal mouse (C3H/HeN, Orient Bio Inc., Korea). 40 minutes after the injection, a luminescence image was obtained by scanning the mouse for 1 minute in the lying position.

Compound	half-life [1]	Decay mode EC (%) [1]	luminescence signal in mouse image [2]	Ece mean [1]	uptake seen in luminescence image [3]	Decay mode IT (%) ([1]; isomeric transition)
OC[C@H]1OC(O)[C@H]([18F])[C@@H](O)[C@@H]1O (stereo partly shown) [^18F, [^18F]FDG]	(110 min)	(3) %	intense signal was detected in the brain and brown fat area on the shoulder	–	–	–
[64Cu+2].[Cl-].[Cl-] [^64Cu, [^64Cu]CuCl2]	(12.7 h)	–	–	–	–	–
[68Ga+3].[Cl-].[Cl-].[Cl-] [^68Ga, [^68Ga]GaCl3]	(68 min)	(11) %	–	–	–	–
[Cl][111In]([Cl])[Cl] [^111In, [^111In]InCl3]	(2.8 d)	(100) %	–	176 keV	–	–
[124I-].[Na+] [^124I, [^124I]NaI]	(4.2 d)	(77) %	–	–	high uptake in the thyroid and bladder region	–
[131I-].[Na+] [^131I, [^131I]NaI]	(8.0 d)	–	–	–	–	–
[^99mTc]TcO4^−	(6.0 h)	–	–	14 keV	–	(100) %
